# Source: PubChem BioAssay AID292 (DTP/NCI, 2004)
# Several values for one entry are separate records, joined by “and”; a condition that tells them apart may be missing. Identical values can stand only once. Inconclusive results and toxic doses are left out. Peptide text beside a SMILES is read from it. * marks the point of attachment. Trt = c1ccc(C(c2ccccc2)(c2ccccc2)*)cc1; Cbz = O=C(OCc1ccccc1)*; Bn = c1ccc(C*)cc1; βAla = NCCC(=O)O
# System: B6C3F1 mice, ip Sarcoma M5076, median survival T/C
# Assay: NCI In Vivo Anticancer Drug Screen. Data for tumor model Sarcoma M5076 (intraperitoneal) in B6C3F1 mice
# Conditions: endpoint: median survival time, higher = longer survival
# In short: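 The readout is a ratio of survival in drug-treated animals to survival in animals given vehicle alone, taken in mice bearing a transplanted tumour line.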
# [1] = dose: 25.0 mg/kg/injection, schedule: Q04DX004 (ip), vehicle: saline with Tween-80
# [2] = dose: 50.0 mg/kg/injection, schedule: Q04DX004 (ip), vehicle: saline with Tween-80
# [3] = dose: 100.0 mg/kg/injection, schedule: Q04DX004 (ip), vehicle: saline with Tween-80
# [4] = dose: 200.0 mg/kg/injection, schedule: Q04DX004 (ip), vehicle: saline with Tween-80
# [5] = dose: 25.0 mg/kg/injection, schedule: Q04DX004 (ip), vehicle: Klucel (hydroxypropylcellulose) (HPC)
# [6] = dose: 50.0 mg/kg/injection, schedule: Q04DX004 (ip), vehicle: Klucel (hydroxypropylcellulose) (HPC)
# [7] = dose: 100.0 mg/kg/injection, schedule: Q04DX004 (ip), vehicle: Klucel (hydroxypropylcellulose) (HPC)
# [8] = dose: 200.0 mg/kg/injection, schedule: Q04DX004 (ip), vehicle: Klucel (hydroxypropylcellulose) (HPC)
# [9] = dose: 400.0 mg/kg/injection, schedule: Q04DX004 (ip), vehicle: Klucel (hydroxypropylcellulose) (HPC)
smiles,measurement,setting,value
O=NNc1ccc2cccnc2n1,T/C,"dose: 12.5 mg/kg/injection, schedule: Q04DX004 (ip), vehicle: water",104 % of control
same,T/C,"dose: 25.0 mg/kg/injection, schedule: Q04DX004 (ip), vehicle: water",116 % of control
same,T/C,"dose: 50.0 mg/kg/injection, schedule: Q04DX004 (ip), vehicle: water",151 % of control
same,T/C,"dose: 100.0 mg/kg/injection, schedule: Q04DX004 (ip), vehicle: water",151 % of control and 161 % of control
same,T/C,"dose: 200.0 mg/kg/injection, schedule: Q04DX004 (ip), vehicle: water",174 % of control
Cc1ccc(-n2c(CSc3ccc(Cl)cc3)nnc2SCc2nc3ccccc3[nH]2)cc1,T/C,"dose: 18.75 mg/kg/injection, schedule: Q04DX004 (ip), vehicle: saline with Tween-80",95 % of control
same,T/C,"dose: 37.5 mg/kg/injection, schedule: Q04DX004 (ip), vehicle: saline with Tween-80",104 % of control
same,T/C,"dose: 75.0 mg/kg/injection, schedule: Q04DX004 (ip), vehicle: saline with Tween-80",100 % of control
same,T/C,"dose: 150.0 mg/kg/injection, schedule: Q04DX004 (ip), vehicle: saline with Tween-80",95 % of control
CN(C)C=O,T/C,"dose: 10.0 mg/kg/injection, schedule: Q04DX004 (ip), vehicle: saline",104 % of control
same,T/C,"dose: 20.0 mg/kg/injection, schedule: Q04DX004 (ip), vehicle: saline",111 % of control
same,T/C,"dose: 40.0 mg/kg/injection, schedule: Q04DX004 (ip), vehicle: saline",104 % of control
same,T/C,"dose: 80.0 mg/kg/injection, schedule: Q04DX004 (ip), vehicle: saline",100 % of control
same,T/C,"dose: 100.0 mg/kg/injection, schedule: Q04DX004 (ip), vehicle: saline",103 % of control
same,T/C,"dose: 160.0 mg/kg/injection, schedule: Q04DX004 (ip), vehicle: saline",104 % of control
same,T/C,"dose: 200.0 mg/kg/injection, schedule: Q04DX004 (ip), vehicle: saline",107 % of control
same,T/C,"dose: 400.0 mg/kg/injection, schedule: Q04DX004 (ip), vehicle: saline",100 % of control
same,T/C,"dose: 800.0 mg/kg/injection, schedule: Q04DX004 (ip), vehicle: saline",107 % of control
same,T/C,"dose: 1600.0 mg/kg/injection, schedule: Q04DX004 (ip), vehicle: saline",108 % of control
CCCC1CCC(=C2C(=O)CCC2=O)O1 (centres undefined),T/C,[1],101 % of control
same,T/C,[2],95 % of control
same,T/C,[3],96 % of control
CCC1OCC(C(Cl)CCl)O1 (centres undefined),T/C,[2],100 % of control
same,T/C,[3],97 % of control
same,T/C,[4],93 % of control
CN(C)C(=O)Nc1ccc(Cl)cc1,T/C,"dose: 25.0 mg/kg/injection, schedule: Q04DX004 (ip), vehicle: suspension in saline",107 % of control
same,T/C,"dose: 50.0 mg/kg/injection, schedule: Q04DX004 (ip), vehicle: suspension in saline",94 % of control and 105 % of control and 113 % of control
same,T/C,"dose: 100.0 mg/kg/injection, schedule: Q04DX004 (ip), vehicle: suspension in saline",91 % of control and 102 % of control and 104 % of control
same,T/C,"dose: 200.0 mg/kg/injection, schedule: Q04DX004 (ip), vehicle: suspension in saline",92 % of control and 97 % of control and 113 % of control
same,T/C,"dose: 400.0 mg/kg/injection, schedule: Q04DX004 (ip), vehicle: suspension in saline",95 % of control and 98 % of control and 99 % of control
O=C1NC2(CCCCC2)C(=O)N1CCN(CCCl)CCCl,T/C,"dose: 0.75 mg/kg/injection, schedule: Q01DX009 (ip), vehicle: saline with Tween-80",111 % of control
same,T/C,"dose: 1.5 mg/kg/injection, schedule: Q01DX009 (ip), vehicle: saline with Tween-80",113 % of control
same,T/C,"dose: 7.2 mg/kg/injection, schedule: Q01DX009 (ip), vehicle: saline with Tween-80",154 % of control
same,T/C,"dose: 12.0 mg/kg/injection, schedule: Q01DX009 (ip), vehicle: saline with Tween-80",166 % of control and 176 % of control
same,T/C,"dose: 20.0 mg/kg/injection, schedule: Q01DX009 (ip), vehicle: saline with Tween-80",244 % of control
O=C1c2ccccc2C(=O)c2c(NCCOCCO)ccc(NCCOCCO)c21,T/C,[1],100 % of control
same,T/C,[2],103 % of control
same,T/C,[3],105 % of control
same,T/C,[4],102 % of control
same,T/C,"dose: 400.0 mg/kg/injection, schedule: Q04DX004 (ip), vehicle: saline with Tween-80",99 % of control
Cc1nc2ccccc2c2nnc(SCC(=O)N(Cc3ccccc3)c3ccccc3)n12,T/C,[5],98 % of control
same,T/C,[6],115 % of control
same,T/C,[7],114 % of control
same,T/C,[8],104 % of control
same,T/C,[9],112 % of control
CC1CCC(NC(=O)N(CCCl)N=O)CC1 (centres undefined),T/C,"dose: 3.0 mg/kg/injection, schedule: Q01DX004 (ip), vehicle: Klucel (hydroxypropylcellulose) (HPC)",108 % of control
same,T/C,"dose: 6.0 mg/kg/injection, schedule: Q01DX004 (ip), vehicle: Klucel (hydroxypropylcellulose) (HPC)",104 % of control
same,T/C,"dose: 12.0 mg/kg/injection, schedule: Q01DX004 (ip), vehicle: Klucel (hydroxypropylcellulose) (HPC)",108 % of control
same,T/C,"dose: 48.0 mg/kg/injection, schedule: Q04DX004 (ip), vehicle: Klucel (hydroxypropylcellulose) (HPC)",254 % of control
N#CC1C(=O)NC(=S)NC1c1ccc(Cl)cc1 (centres undefined),T/C,[6],103 % of control
same,T/C,[7],100 % of control
CC1=CC(C)C(O)C(C)/C=C/C(O)C/C=C(/C)C(=O)CC(O)C(C)\C=C/C=C/C=C\C(=O)NC2=C(O)c3cc(C)c(O)c(c3C(=O)C2=O)C1=O (centres undefined),T/C,"dose: 1.25 mg/kg/injection, schedule: Q04DX004 (ip), vehicle: Klucel (hydroxypropylcellulose) (HPC)",109 % of control
same,T/C,"dose: 2.5 mg/kg/injection, schedule: Q04DX004 (ip), vehicle: Klucel (hydroxypropylcellulose) (HPC)",97 % of control
same,T/C,"dose: 5.0 mg/kg/injection, schedule: Q04DX004 (ip), vehicle: Klucel (hydroxypropylcellulose) (HPC)",102 % of control
same,T/C,"dose: 10.0 mg/kg/injection, schedule: Q04DX004 (ip), vehicle: Klucel (hydroxypropylcellulose) (HPC)",102 % of control
same,T/C,[5],98 % of control
NC(=S)N/N=C/c1cc(=O)c2cc(Cl)ccc2o1,T/C,"dose: 75.0 mg/kg/injection, schedule: Q04DX004 (ip), vehicle: DMSO",92 % of control
COc1ccc([N+](=O)[O-])cc1NC(=O)C1C(=O)C(=O)N(c2cc([N+](=O)[O-])ccc2OC)C1=O (centres undefined),T/C,[6],100 % of control
same,T/C,[7],107 % of control
same,T/C,[8],100 % of control
COC(=O)C(CSC(c1ccccc1)(c1ccccc1)c1ccccc1)NC(=O)C(CSCc1ccccc1)NC(=O)CCNC(=O)OCc1ccccc1 (centres undefined) ({Cbz-βAla}-Cys(Bn)-Cys(Trt)-OMe; configuration not given here),T/C,[6],102 % of control
same,T/C,[7],97 % of control
same,T/C,[8],106 % of control
same,T/C,[9],89 % of control
same,T/C,"dose: 800.0 mg/kg/injection, schedule: Q04DX004 (ip), vehicle: Klucel (hydroxypropylcellulose) (HPC)",107 % of control
N[C@@H](Cc1ccc(N(CCCl)CCCl)cc1)C(=O)O,T/C,"dose: 0.5 mg/kg/injection, schedule: Q04DX004 (ip), vehicle: saline with Tween-80",124 % of control
same,T/C,"dose: 2.0 mg/kg/injection, schedule: Q04DX004 (ip), vehicle: saline with Tween-80",188 % of control
same,T/C,"dose: 2.0 mg/kg/injection, schedule: Q04DX004 (ip), vehicle: saline",151 % of control
same,T/C,"dose: 4.0 mg/kg/injection, schedule: Q04DX004 (ip), vehicle: saline with Tween-80",213 % of control and 221 % of control
same,T/C,"dose: 4.0 mg/kg/injection, schedule: Q04DX004 (ip), vehicle: saline",172 % of control
same,T/C,"dose: 8.0 mg/kg/injection, schedule: Q04DX004 (ip), vehicle: saline with Tween-80",251 % of control
same,T/C,"dose: 8.0 mg/kg/injection, schedule: Q04DX004 (ip), vehicle: saline",251 % of control
N=C(N)c1nn(C2OC(CO)C(O)C2O)c2nc[nH]c(=O)c12 (centres undefined),T/C,"dose: 6.25 mg/kg/injection, schedule: Q04DX004 (ip), vehicle: Klucel + Tween-80",123 % of control
same,T/C,"dose: 12.5 mg/kg/injection, schedule: Q04DX004 (ip), vehicle: Klucel + Tween-80",109 % of control
same,T/C,"dose: 18.0 mg/kg/injection, schedule: Q04DX004 (ip), vehicle: other",106 % of control
same,T/C,"dose: 22.0 mg/kg/injection, schedule: Q04DX004 (ip), vehicle: Klucel + Tween-80",112 % of control
same,T/C,"dose: 30.0 mg/kg/injection, schedule: Q04DX004 (ip), vehicle: other",107 % of control
same,T/C,"dose: 36.0 mg/kg/injection, schedule: Q04DX004 (ip), vehicle: Klucel + Tween-80",120 % of control
same,T/C,"dose: 50.0 mg/kg/injection, schedule: Q04DX004 (ip), vehicle: other",105 % of control
same,T/C,"dose: 60.0 mg/kg/injection, schedule: Q04DX004 (ip), vehicle: Klucel + Tween-80",117 % of control
same,T/C,"dose: 83.33 mg/kg/injection, schedule: Q04DX004 (ip), vehicle: other",105 % of control
same,T/C,"dose: 101.0 mg/kg/injection, schedule: Q04DX004 (ip), vehicle: Klucel + Tween-80",117 % of control
O=C1CC2(C(=O)N1CN1CCOCC1)c1ccccc1-c1ccccc12,T/C,[8],113 % of control
same,T/C,[9],121 % of control
